molecular target: T1, HMG--CoA reductase (Rattus norvegicus, UniProt P51639); assay: Inhibition of HMG-CoA reductase (microsomal enzyme from rat liver, [14C] HMG-CoA reduction to mevalonolactone); type: biochemical; details: rat liver microsomal fraction; compound tested as the dihydroxy sodium carboxylate, 10^-3 to 10^-6 M; 20 minute incubation at 37° C.
T1 construct: the microsomal fraction is isolated by differential ultracentrifugation to obtain HMG--CoA reductase enzyme; from tissue; host or cells: rat liver, microsomal fraction
T1 sequence (P51639 1-887): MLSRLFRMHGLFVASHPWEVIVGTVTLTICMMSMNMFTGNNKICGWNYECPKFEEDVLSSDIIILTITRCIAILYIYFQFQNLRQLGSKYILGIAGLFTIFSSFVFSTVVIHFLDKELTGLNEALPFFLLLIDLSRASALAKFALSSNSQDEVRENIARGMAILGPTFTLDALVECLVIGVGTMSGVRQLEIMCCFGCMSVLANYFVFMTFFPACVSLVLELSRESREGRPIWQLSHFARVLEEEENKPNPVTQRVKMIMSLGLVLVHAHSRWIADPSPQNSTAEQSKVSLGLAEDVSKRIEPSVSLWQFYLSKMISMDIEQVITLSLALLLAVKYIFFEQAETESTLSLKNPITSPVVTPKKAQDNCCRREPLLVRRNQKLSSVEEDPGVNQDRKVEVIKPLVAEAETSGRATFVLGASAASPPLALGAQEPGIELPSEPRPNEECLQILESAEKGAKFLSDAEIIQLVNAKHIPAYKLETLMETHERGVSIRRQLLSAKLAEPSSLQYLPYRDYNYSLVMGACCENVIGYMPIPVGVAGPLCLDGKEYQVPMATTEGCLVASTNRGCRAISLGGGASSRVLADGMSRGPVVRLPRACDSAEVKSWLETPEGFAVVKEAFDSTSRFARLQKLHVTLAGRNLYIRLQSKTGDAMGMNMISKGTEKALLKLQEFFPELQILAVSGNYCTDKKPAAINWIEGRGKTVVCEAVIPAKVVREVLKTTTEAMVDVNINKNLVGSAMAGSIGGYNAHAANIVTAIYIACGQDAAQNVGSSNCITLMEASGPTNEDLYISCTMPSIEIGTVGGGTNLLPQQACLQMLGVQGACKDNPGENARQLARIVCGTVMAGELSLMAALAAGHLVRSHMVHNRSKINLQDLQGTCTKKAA
Description: The HMG--CoA reductase inhibitory properties of representative compounds of this invention were established by subjecting the compounds to the following standard experimental test procedure adapted from Rodwell et al., Adv. Lipid Res. 14 1, 1976; Endo et al., FEBS Letters 72 323, 1976; and Tanzawa et al., Biochemia et Biophysica Acta 488 97, 1977.
Rat livers obtained from rats fed on a diet containing 3% cholestyramine and maintained on a reverse lighting regimen for three weeks are homogenized and the microsomal fraction is isolated by differential ultracentrifugation to obtain HMG--CoA reductase enzyme. To a preincubated (five minutes at 37° C.) solution of the compound being tested (as the dihydroxy sodium carboxylate in amounts from 10^-3 to 10^-6 M) in TEDKS100 pH (Tris®40 mM; EDTA 1 mM; dithiothreitol 5 mM; KCl 70 mM; sucrose 100 mM), 7.5 buffer or DMSO dissolved in an assay medium containing 20 μl of 2.5M KCl; 20 μl NADPH (reduced nicotinamide adenine dinucleotide phosphate) (7.5 mM); and 40 μl of labeled (RS) HMG--CoA (3--^14 C; […]; 200 μM) is added 10 μl of preincubated (five minutes at 37° C.) microsomal fraction to obtain a total volume of 125 μl. After a twenty minute incubation period at 37° C., reaction of the enzyme is terminated by addition of 10 μl of 70% HClO4. The assay tubes are then centrifuged for two minutes in a Beckman microfuge II.
To 100 μl of the supernatant liquid is added 10 μl of non-radioactivemevalonic acid lactone (0.25M in 8 mM H2 SO4). An aliquot of the sample is eluted with 8 mM H2 SO4 through Bio Rad Aminex HPX-87H (HPLC; Hewlett-Packard Model 1084B) at a flow rate of 1 mL/minute. The effluent is fractionated, Hydrofluor® is added and radioactivity of the [^14 C] mevalonolactone produced by reduction of [^14 C] HMG--CoA determined with a scintillation counter.
The percent inhibition of HMG--CoA reductase activity is obtained by comparison with a control assay devoid of the test compound. The inhibitory concentration (IC50) is calculated for the various test compounds.

Question: For `COC(=O)C[C@@H](O)C[C@H](O)/C=C/c1ccc(-c2ccc(C(F)(F)F)cc2[N+](=O)[O-])o1` [Example 4, (3S,5S,E)-3,5-Dihydroxy-7-[5-[4-(Trifluoromethyl)-2-Nitrophenyl]-2-Furanyl]-6-Heptenoic Acid Methyl Ester], which IC50 is on record?
Answer: 100 µM

Question: With `COC(=O)C[C@@H](O)C[C@H](O)/C=C/c1oc(C)cc1-c1ccccc1` [Example 2, (3S,5S,E)-7-[5-Methyl-3-Phenyl-2-Furanyl]-3,5-Dihydroxy-6-Heptenoic Acid Methyl Ester] as the compound, how does the IC50 read?
Answer: 99 µM

Question: For `COC(=O)C[C@@H](O)C[C@H](O)/C=C/c1oc(C)cc1-c1ccc(F)cc1` [Example 1, (3S,5S,E)-7-[5-Methyl-3-(4-Fluorophenyl)-2-Furanyl]-3,5-Dihydroxy-6-Heptenoic Acid Methyl Ester], which IC50 is on record?
Answer: 62 µM

Question: For `COC(=O)C[C@@H](O)C[C@H](O)/C=C/c1occc1-c1ccc(F)cc1` [Example 3, (3S,5S,E)-7-[3-(4-Fluorophenyl)-2-Furanyl]-3,5-Dihydroxy-6-Heptenoic Acid Methyl Ester], which IC50 is on record?
Answer: 56 µM

test system: biosynthesis of cholesterol; assay: not given; details: background art; cited from earlier work

Question: For `CC[C@H](C)C(=O)O[C@H]1CCC=C2C=C[C@H](C)[C@H](CC[C@@H]3C[C@@H](O)CC(=O)O3)[C@H]21` [compactin], which “inhibition of the biosynthesis of cholesterol (in words)” value is on record?
Answer: inhibited

Question: For `CCC(C)C(=O)OC1CC(C)C=C2C=CC(C)C(CCC3CC(O)CC(=O)O3)C21` (stereo not drawn) [mevinolin], which “inhibition of the biosynthesis of cholesterol (in words)” value is on record?
Answer: more effectively

From patent US4792614A, “Substituted furans as inhibitors of 3-hydroxy-3-methylglutaryl-coa reductase” (American Home Products Corporation, priority 1987, dated 1988)
